Reference: US8093060B2, “Multisite phosphorylated peptide (protein) recognizing compound and detection method, imaging method, alzheimer's disease diagnosing method and reagent kit using the same” (Canon Kabushiki Kaisha, priority 2008, dated 2012)

Experiments:
Format in all cases: binding
[1] = target: T1, nonphosphorylated Tau aggregate (n-Tau) (Homo sapiens, UniProt P10636); assay: Fluorescence staining of nonphosphorylated tau aggregate prepared in vitro; details: 10 μM dye
T1 construct: made in house; host or cells: Escherichia coli
Method: (§1) Tau proteins (8 μM) expressed by Escherichia coli and heparin (1.6 μM) were incubated at 37° C. for 20 days to prepare a tau aggregate. A phosphorylated tau aggregate was similarly prepared using tau proteins phosphorylated with GSK-3β in vitro. The results of Pro-Q diamond staining after performing SDS-PAGE confirmed that the in-vitro phosphorylation was performed with a phosphorylation degree of 6 mol P/mol Tau.
(§2) 10 μM BODIPY-Zn(Dpa) or 10 μM thioflavine T (may be referred to as ThT) were added to the prepared tau aggregate or phosphorylated tau aggregate. After the addition, the mixture was washed twice with 0.5 mM Zn(NO3)2, and a suspension (0.5 μL) of the stained phosphorylated tau aggregate was air-dried on a cover glass and observed under a confocal laser scanning microscope (OLYMPUS FV-1000, Obj. lens 100×).

[2] = target: T2, phosphorylated tau aggregate (p-Tau) (Homo sapiens, UniProt P10636); assay: Fluorescence staining of phosphorylated tau aggregate prepared in vitro
T2 construct: made in house; host or cells: Escherichia coli
Method: as §1, §2

[3] = tested on: peptides with two phosphate groups positioned with a distance of (i, i+2); assay: Fluorescence titration of compound 1 with (i, i+2) diphosphorylated tau peptides
Method: (§3) The peptide recognizing abilities of compounds 1 and 2 were evaluated by measuring fluorescence spectra. Measurement was performed under conditions of [compound 1 or 2=10 μM, an optical path length of 1 cm, pH 7.2, 50 mM HEPES buffer and 25° C. The excitation wavelength was λex=323 nm, Ex/Em=15 nm/10 nm, except λex=323 nm, Ex/Em=5 nm/10 nm for only Tau210-2202P, for compound 1, and λex=305 nm, Ex/Em=10 nm/12 nm for compound 2. […] When the peptide was excessively added, this change reached saturation. The association constants calculated from the fluorescence changes were in the order of approx. 10^5 M^−1. […] When the fluorescence spectra of compounds 1 and 2 themselves were compared, compound 2 emitted much weaker fluorescence on the short wavelength side and stronger fluorescence on the long wavelength side than compound 1 (FIG. 8B) ([compound 1 or 2=10 μM, λex=305 nm, Ex/Em=10 nm/12 nm, 50 mM HEPES buffer, 1 cm cell, 25° C.).

Tau210-2202P [4] = target: T3, Tau210-2202P (Homo sapiens, UniProt P10636); assay: Fluorescence spectra titration with Tau210-2202P added dropwise; details: compound 10 μM, pH 7.2, 50 mM HEPES buffer, 25° C.
T3 construct: made in house; host or cells: chemical solid-phase synthesis
Method: as §3

[5] = target: T4, peptides with two phosphate groups with a distance of (i, i+4) or (i, i+6) (Homo sapiens, UniProt P10636); assay: Fluorescence titration of compound 1 with (i, i+4) or (i, i+6) diphosphorylated tau peptides
T4 construct: made in house; host or cells: chemical solid-phase synthesis
Method: as §3

Tau204-2162P(i, i+6) [6] = target: T5, Tau204-2162P(i, i+6) (Homo sapiens, UniProt P10636); assay: Fluorescence titration of compound 1 with Tau204-2162P (i, i+6)
T5 construct: made in house; host or cells: chemical solid-phase synthesis
Method: as §3

Tau210-2202P [7] = target: T3, Tau210-2202P; assay: ITC measurement of affinity, Tau210-2202P; details: compound 1 100 μM, peptide 2 mM, 25° C., pH 7.2, 50 mM HEPES
Method: (§4) To determine whether these fluorescence changes are associated with binding, affinity was examined by ITC measurement using, in particular, three peptides of Tau210-2202P, Tau204-2163P and Tau204-2162P(i, i+6). ITC measurement was performed under the following conditions: Tau210-2202P, [compound 1]=100 μM and [peptide]=2 mM; Tau204-2163P, [compound 1]=50 μM and [peptide]=1 mM; Tau204-2162P(i, i+6), [compound 1]=100 μM and [peptide]=3.24 mM; the number of titrations, 24; measurement temperature, 25° C.; pH 7.2; and 50 mM HEPES buffer. FIG. 11 illustrates caloric changes when Tau210-2202P was added to compound 1. FIG. 12 illustrates various thermodynamic parameters obtained from the caloric changes in the three different peptides. The caloric changes associated with the dropping of the peptide was an entropy-driven endothermic process (ΔS>0, ΔH>0). This change can be attributed to dehydration of water molecules hydrated to the compound molecules and the phosphorylated peptides along with the binding. The association constants obtained in Tau210-2202P and Tau204-2163P (K=3.33×10^5 M^−1 and K=2.88×10^5 M^−1, respectively) were similar to the values calculated from the fluorescence changes. […] On the other hand, N=0.51 was obtained in Tau204-2162P(i, i+6), and it appears that two compound molecules individually interact with two phosphate groups on the peptide.

[8] = Fluorescence titration of compound 1 with phenyl phosphate
Method: as §3

Tau204-2162P(i, i+6) [9] = target: T5, Tau204-2162P(i, i+6); assay: ITC measurement of affinity, Tau204-2162P(i, i+6); details: compound 1 100 μM, peptide 3.24 mM, 25° C., pH 7.2
Method: as §4

Tau204-2163P [10] = target: T6, Tau204-2163P (Homo sapiens, UniProt P10636); assay: Fluorescence titration of compound 1 with Tau204-2163P
T6 construct: made in house; host or cells: chemical solid-phase synthesis
Method: as §3

Tau204-2162P (i, i+4) = target: T7, Tau204-2162P (i, i+4) (Homo sapiens, UniProt P10636); assay: Fluorescence titration of compound 1 with Tau204-2162P (i, i+4)
T7 construct: made in house; host or cells: chemical solid-phase synthesis
Method: as §3

Tau204-2163P [11] = target: T6, Tau204-2163P; assay: ITC measurement of affinity, Tau204-2163P; details: compound 1 50 μM, peptide 1 mM, 25° C., pH 7.2, 50 mM HEPES
Method: as §4

T2 sequence (P10636 1-441 isoform P10636-8): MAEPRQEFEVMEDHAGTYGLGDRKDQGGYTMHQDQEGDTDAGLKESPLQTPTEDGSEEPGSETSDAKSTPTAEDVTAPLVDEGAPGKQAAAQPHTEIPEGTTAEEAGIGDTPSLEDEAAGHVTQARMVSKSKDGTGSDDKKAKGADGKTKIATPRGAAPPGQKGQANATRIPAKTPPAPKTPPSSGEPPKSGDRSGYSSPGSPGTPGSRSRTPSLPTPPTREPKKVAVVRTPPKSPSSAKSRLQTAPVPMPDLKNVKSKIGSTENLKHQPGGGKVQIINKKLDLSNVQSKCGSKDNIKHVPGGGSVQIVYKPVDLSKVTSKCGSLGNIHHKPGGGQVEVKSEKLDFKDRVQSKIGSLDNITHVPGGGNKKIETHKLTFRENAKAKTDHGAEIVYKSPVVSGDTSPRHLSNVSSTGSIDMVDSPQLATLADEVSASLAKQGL
T1 sequence (P10636 1-441 isoform P10636-8): as above

| staining of aggregate [1] | staining of aggregate ([2]; p-Tau in the presence of pyrophosphoric acid (PPi)) | SMILES | staining of aggregate ([2]; p-Tau, 10 μM dye) | binding constants to the peptides calculated from the fluorescence changes ([3]; (i, i+2) peptides) | fluorescence change on dropwise addition of peptide ([3]; (i, i+2) peptides, compound 1 10 μM) | Ka ([3]; (i, i+2) phosphate groups on tau sequence, summary) | association constants calculated from the fluorescence changes (Tau210-2202P [4]) | fluorescence change on dropwise addition of Tau210-2202P (Tau210-2202P [4]) | fluorescence change on dropwise addition of peptide ([5]; (i, i+4) or (i, i+6) peptides) | binding to two phosphate groups ([5]; positions (i, i+4) or (i, i+6), summary) | fluorescence change (Tau204-2162P(i, i+6) [6]) | association constant K (ITC) (Tau210-2202P [7]) [M⁻¹] | fluorescence change [8] | stoichiometry N (ITC) (Tau204-2162P(i, i+6) [9]) | fluorescence change (Tau204-2163P [10]) | fluorescence change (Tau204-2162P (i, i+4)) | association constant K (ITC) (Tau204-2163P [11]) [M⁻¹] |
| --- | --- | --- | --- | --- | --- | --- | --- | --- | --- | --- | --- | --- | --- | --- | --- | --- | --- |
| is observed | stained the aggregate | Cc1ccc2c(c1)sc(-c1ccc(N(C)C)cc1)[n+]2C.[Cl-] [thioflavine T, reference compound] | fluorescence of ThT and that of BODIPY-Zn(Dpa) overlapped |  |  |  |  |  |  |  |  |  |  |  |  |  |  |
|  |  | CN(Cc1ccccn1)Cc1cc(/C=C/c2ccnc(CN(C)Cc3ccccn3)c2)ccn1.O=[N+]([O-])[O-].O=[N+]([O-])[O-].O=[N+]([O-])[O-].O=[N+]([O-])[O-].[Zn+2].[Zn+2] [compound 1] |  | approx. 10^5 | dual wavelength fluorescence changes | ~10^5 M^−1 | approx. 10^5 M^−1 | dual wavelength fluorescence changes | did not show marked fluorescence changes | did not bind | no marked fluorescence change occurred | 333000 | no marked fluorescence change | 0.51 | dual wavelength fluorescence changes occurred | no marked fluorescence change occurred | 288000 |
